Test results from patent US20250177396A1, “POLO-LIKE KINASE 4 (PLK4) INHIBITORS, PHARMACEUTICAL COMPOSITIONS, METHODS OF PREPARATION AND USES THEREOF” (Repare Therapeutics Inc., priority 2022, published 2025).

The compounds below were run against T1, PLK4 (Homo sapiens, UniProt O00444) (assay: PLK4 NanoBRET target engagement assay). Settings: HEK293 T cells transfected with PLK4 NanoLuc fusion vector; K-5 tracer; 2 hrs incubation.
T1 construct: expressed in transfected cells; host or cells: HEK293 T cells (ATCC CRL-3216)
T1 sequence (O00444 1-970): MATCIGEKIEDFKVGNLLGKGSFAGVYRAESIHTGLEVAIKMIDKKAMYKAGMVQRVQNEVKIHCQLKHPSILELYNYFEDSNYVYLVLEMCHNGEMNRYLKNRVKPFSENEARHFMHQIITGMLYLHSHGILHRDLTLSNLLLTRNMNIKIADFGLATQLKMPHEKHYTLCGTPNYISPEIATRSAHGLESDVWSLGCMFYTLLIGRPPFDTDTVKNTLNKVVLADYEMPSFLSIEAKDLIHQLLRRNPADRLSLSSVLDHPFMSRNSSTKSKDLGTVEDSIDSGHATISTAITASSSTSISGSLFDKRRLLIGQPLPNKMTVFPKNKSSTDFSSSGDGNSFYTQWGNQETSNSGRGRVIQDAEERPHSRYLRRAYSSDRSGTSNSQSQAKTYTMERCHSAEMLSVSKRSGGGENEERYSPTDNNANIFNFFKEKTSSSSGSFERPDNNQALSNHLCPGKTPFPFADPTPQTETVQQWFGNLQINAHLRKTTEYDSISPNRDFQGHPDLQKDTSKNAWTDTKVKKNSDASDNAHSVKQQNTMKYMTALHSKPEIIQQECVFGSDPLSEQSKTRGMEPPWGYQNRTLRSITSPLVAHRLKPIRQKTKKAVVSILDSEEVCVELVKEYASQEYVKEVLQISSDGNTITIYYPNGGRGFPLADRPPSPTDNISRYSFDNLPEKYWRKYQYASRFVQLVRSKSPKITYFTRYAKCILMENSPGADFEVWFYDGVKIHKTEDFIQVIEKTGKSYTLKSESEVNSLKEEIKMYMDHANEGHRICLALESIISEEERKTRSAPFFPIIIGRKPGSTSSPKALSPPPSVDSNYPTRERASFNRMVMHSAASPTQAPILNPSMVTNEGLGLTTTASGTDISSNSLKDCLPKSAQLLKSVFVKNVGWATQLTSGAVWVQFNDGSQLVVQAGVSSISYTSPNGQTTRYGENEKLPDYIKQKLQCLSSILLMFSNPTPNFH
Type: binding
Protocol: To determine the affinity of Compounds described herein in the PLK4 NanoBRET target engagement assay, HEK293 T cells (ATCC Product Number CRL-3216) are first transfected with the PLK4 NanoLuc fusion vector DNA and Transfection carrier DNA using the Fugene HD Transfection reagent in Opti-MEM No Phenol Red buffer. After an overnight incubation in a 37° C./5% CO2 incubator, the transfected HEK293 T cells are trypsinized, counted, and resuspended in Opti-MEM No Phenol Red buffer at a concentration of 200000 cells/mL. White 96-well plates are then plated with 85 μL of cells (17000 cells/well) to which 5 μL of the 20×K-5 tracer solution diluted in tracer dilution buffer is added. Finally, 10 μL of the 10× compounds are added and the plates and then incubated in a 37° C./5% CO2 incubator for 2 hrs. After the incubation, a 50 uL 3× solution of the substrate/inhibitor mix is added to the cells. The plate is then transferred in the Envision plate reader where the Acceptor emission (610 nm) and the Donor emission (450 nm) are measured.
The IC50 of compounds is determined as follows: • 1. The ratio between the Acceptor emission (610 nm)/Donor emission (450 nm) is calculated. • 2. This ratio is then multiplied by 1000 to obtain the mBRET units (multiplying by 1000 is an arbitrary step that simply makes the data easier to interpret; it has no impact on the data set itself) • 3. The mBRET units are then used in Scigilian Analyze software (https://analyze.scigilian.io) to determine the IC50 value using a 4-parameter fit analysis.
For `COc1c(Nc2cc(C)[nH]n2)nc(Oc2ccc(S(C)(=O)=O)cc2Cl)nc1-c1cnn(C)c1` [Compound 34], the IC50 was 900 nM. In the case of `COc1c(Nc2cc(C)[nH]n2)nc(Oc2ccc(Br)c(C#N)c2)nc1-c1cnn(C)c1` [Compound 36], the IC50 is reported as 7000 nM. `COc1c(Nc2cc(C)[nH]n2)nc(Nc2ccc(S(C)(=O)=O)cc2)nc1-c1cnn(C)c1` [Compound 37] was tested, and the IC50 was 550 nM. Work on `Cc1cc(Nc2nc(N(C)c3c(F)cc(S(C)(=O)=O)cc3F)nc(-c3cn[nH]c3)c2C2CC2)n[nH]1` [Compound 40] yielded an IC50 of 10 nM. `COc1c(Nc2cc(C)[nH]n2)nc(N(C(C)=O)c2ccc(S(C)(=O)=O)cc2F)nc1-c1cnn(C)c1` [Compound 41] showed an IC50 of 680 nM. For `Cc1cc(Nc2nc(N(C)c3ccc(S(C)(=O)=O)cc3F)nc(-c3cnn(C)c3)c2C)n[nH]1` [Compound 42], the IC50 was 14 nM. `Cc1cc(Nc2nc(N(C)c3ccc(S(C)(=O)=O)cc3F)nc(-c3cnnn3C)c2C2CC2)n[nH]1` [Compound 43] gave an IC50 of 180 nM. In the case of `Cc1cc(Nc2nc(N(C)c3ccc(S(C)(=O)=O)cc3F)nc(-c3ncc(C)s3)c2C2CC2)n[nH]1` [Compound 44], the IC50 is reported as 240 nM. `Cc1csc(-c2nc(N(C)c3ccc(S(C)(=O)=O)cc3F)nc(Nc3cc(C)[nH]n3)c2C2CC2)n1` [Compound 45] gave an IC50 of 140 nM. In the case of `COc1c(Nc2cc(C)[nH]n2)nc(N(C)c2ccc(CN3CCOC3=O)cc2)nc1-c1cnn(C)c1` [Compound 46], the IC50 is reported as 110 nM. In the case of `COc1c(Nc2cc(C)[nH]n2)nc(N(C)c2ccc(CS(C)(=O)=O)cc2)nc1-c1cnn(C)c1` [Compound 47], the IC50 is reported as 2300 nM. For `Cc1cc(Nc2nc(N(C)c3ccc(S(C)(=O)=O)cc3Cl)nc(-c3ccn(C)n3)c2C2CC2)n[nH]1` [Compound 48], the IC50 was 50 nM. For `COc1c(Nc2cc(C)[nH]n2)nc(N(C)c2ccc(S(C)(=O)=O)c(F)c2F)nc1-c1cnn(C)c1` [Compound 49], the IC50 was 54 nM. `COc1c(Nc2cc(C)[nH]n2)nc(N(C)c2ccc(CN(C(C)=O)c3ccccc3)cc2F)nc1-c1cnn(C)c1` [Compound 50] gave an IC50 of 770 nM. In the case of `CCCS(=O)(=O)c1ccc(N(C)c2nc(Nc3cc(C)[nH]n3)c(OC)c(-c3cnn(C)c3)n2)cc1` [Compound 51], the IC50 is reported as 220 nM. `COc1c(Nc2cc(C)[nH]n2)nc(N(C)c2ccc(CN(C)C(=O)c3ccccc3)cc2F)nc1-c1cnn(C)c1` [Compound 52] showed an IC50 of 290 nM. For `Cc1cc(Nc2nc(N(C)c3ccc(S(C)(=O)=O)cc3Br)nc(-c3cnn(C)c3)c2C2CC2)n[nH]1` [Compound 53], the IC50 was 63 nM. `COc1c(Nc2cc(C)[nH]n2)nc(N(C)c2ccc(S(C)(=O)=O)nc2C)nc1-c1cnn(C)c1` [Compound 54] showed an IC50 of 2100 nM. `COc1c(Nc2cc(C)[nH]n2)nc(N(C)c2ccc(S(=O)(=O)CC(C)C)cc2)nc1-c1cnn(C)c1` [Compound 55] gave an IC50 of 320 nM. In the case of `Cc1cc(Nc2nc(N(C)c3ccc(S(C)(=O)=O)cc3C)nc(-c3cnn(C)c3)c2C2CC2)n[nH]1` [Compound 56], the IC50 is reported as 130 nM. `COc1c(Nc2cc(C)[nH]n2)nc(N(C)c2ccc(S(C)(=O)=O)nc2)nc1-c1cnn(C)c1` [Compound 58] gave an IC50 of 1100 nM. For `COc1c(Nc2cc(C)[nH]n2)nc(N(C)c2ccc(-c3ccnn3C)cc2)nc1-c1cnn(C)c1` [Compound 59], the IC50 was 280 nM. For `Cc1cc(Nc2nc(N(C)c3ccc(S(C)(=O)=O)cc3F)nc(-c3ccn(C)n3)c2C(C)C)n[nH]1` [Compound 60], the IC50 was greater than 5000 nM. In the case of `COc1c(Nc2cc(C)[nH]n2)nc(N(C)c2ccc(C(C)(C)C#N)cc2)nc1-c1cnn(C)c1` [Compound 61], the IC50 is reported as 100 nM. `Cc1cc(Nc2nc(N(C)c3ccc(S(C)(=O)=O)cc3F)nc(-c3cnn(C4CN(S(C)(=O)=O)C4)c3)c2C2CC2)n[nH]1` [Compound 62] gave an IC50 of 28 nM. `COc1c(Nc2cc(C)[nH]n2)nc(N(C)c2ccc(C#N)cc2F)nc1-c1cnn(C)c1` [Compound 63] showed an IC50 of 280 nM. `COc1c(Nc2cc(C)[nH]n2)nc(N(C)c2ccc(Cn3ccnc3)cc2F)nc1-c1cnn(C)c1` [Compound 64] gave an IC50 of 59 nM. `COc1c(Nc2cc(C)[nH]n2)nc(N(C)c2cc3c(cc2F)OCO3)nc1-c1cnn(C)c1` [Compound 65] showed an IC50 of 820 nM. Compound `COCCCS(=O)(=O)c1ccc(N(C)c2nc(Nc3cc(C)[nH]n3)c(OC)c(-c3cnn(C)c3)n2)cc1` [Compound 67] has an IC50 of 270 nM. With `COc1c(Nc2cc(C)[nH]n2)nc(N(C)c2ccc3c(c2)CCS3(=O)=O)nc1-c1cnn(C)c1` [Compound 68] the IC50 was 1000 nM. `COc1c(Nc2cc(C)[nH]n2)nc(N(C)c2ccc(Oc3nccs3)cc2)nc1-c1cnn(C)c1` [Compound 69] gave an IC50 of 700 nM. For `CCS(=O)(=O)c1ccc(N(C)c2nc(Nc3cc(C)[nH]n3)c(OC)c(-c3cnn(C)c3)n2)cc1` [Compound 70], the IC50 was 170 nM. In the case of `COc1c(Nc2cc(C)[nH]n2)nc(N(C)c2cccc(C(=O)N(C)C)c2F)nc1-c1cnn(C)c1` [Compound 71], the IC50 is reported as 740 nM. Work on `COc1c(Nc2cc(C)[nH]n2)nc(N(C)c2ccc(-c3nnc(C)o3)cc2)nc1-c1cnn(C)c1` [Compound 72] yielded an IC50 of 820 nM. `COc1ccc(F)c(N(C)c2nc(Nc3cc(C)[nH]n3)c(OC)c(-c3cnn(C)c3)n2)c1` [Compound 74] showed an IC50 of 1200 nM. `COc1c(Nc2cc(C)[nH]n2)nc(N(C)c2ccc(Br)cc2F)nc1-c1cnn(C)c1` [Compound 75] gave an IC50 of 600 nM. With `COc1c(Nc2cc(C)[nH]n2)nc(N(C)c2ccc(S(=O)(=O)C(C)(C)C)cc2F)nc1-c1cnn(C)c1` [Compound 76] the IC50 was 46 nM. For `COc1c(Nc2cc(C)[nH]n2)nc(N(CCN(C)C)c2ccc(S(C)(=O)=O)cc2F)nc1-c1cnn(C)c1` [Compound 77], the IC50 was 580 nM. For `COc1c(Nc2cc(C)[nH]n2)nc(N(C)c2cccc(S(C)(=O)=O)c2)nc1-c1cnn(C)c1` [Compound 78], the IC50 was 4500 nM. With `COc1c(Nc2cc(C)[nH]n2)nc(N(C)c2ccc([S+](C)[O-])cc2)nc1-c1cnn(C)c1` (stereo not shown) [Compound 79] the IC50 was 2300 nM. For `COc1c(Nc2cc(C)[nH]n2)nc(N(C)c2ccc(-c3nccs3)cc2)nc1-c1cnn(C)c1` [Compound 80], the IC50 was 910 nM. `Cc1cc(Nc2nc(N(C)c3ccc(S(=O)(=O)C(C)C)cc3)nc(-c3cnn(C)c3)c2C2CC2)n[nH]1` [Compound 81] gave an IC50 of 73 nM. For `Cc1cc(Nc2nc(N(C)c3ccc(S(=O)(=O)C(C)(C)C)cc3)nc(-c3cnn(C)c3)c2C2CC2)n[nH]1` [Compound 82], the IC50 was 65 nM. `COc1c(Nc2cc(C)[nH]n2)nc(N(C)c2ccc(S(C)(=O)=O)cc2)nc1-c1cnn(C)c1` [Compound 83] gave an IC50 of 190 nM. `COc1c(Nc2cc(C)[nH]n2)nc(N(c2ccc(S(C)(=O)=O)cc2F)C(C)C)nc1-c1cnn(C)c1` [Compound 84] showed an IC50 of 140 nM. `CNC(=O)CN(c1nc(Nc2cc(C)[nH]n2)c(OC)c(-c2cnn(C)c2)n1)c1ccc(S(C)(=O)=O)cc1F` [Compound 85] showed an IC50 of 9200 nM. `COc1c(Nc2cc(C)[nH]n2)nc(N(C)c2ccc(S(=O)(=O)C(C)(C)C)cc2)nc1-c1cnn(C)c1` [Compound 86] gave an IC50 of 120 nM. `COc1c(Nc2cc(C)[nH]n2)nc(N(C)c2ccc(S(=O)(=O)C(C)C)cc2)nc1-c1cnn(C)c1` [Compound 87] gave an IC50 of 160 nM. For `COCCN(c1nc(Nc2cc(C)[nH]n2)c(OC)c(-c2cnn(C)c2)n1)c1ccc(S(C)(=O)=O)cc1F` [Compound 88], the IC50 was 290 nM. `COc1c(Nc2cc(C)[nH]n2)nc(-n2ccc3cc(S(C)(=O)=O)ccc32)nc1-c1cnn(C)c1` [Compound 89] gave an IC50 of 1700 nM. In the case of `COC(=O)CN(c1nc(Nc2cc(C)[nH]n2)c(OC)c(-c2cnn(C)c2)n1)c1ccc(S(C)(=O)=O)cc1F` [Compound 90], the IC50 is reported as 370 nM. With `COc1c(Nc2cc(C)[nH]n2)nc(N(CC(=O)O)c2ccc(S(C)(=O)=O)cc2F)nc1-c1cnn(C)c1` [Compound 91] the IC50 was 5400 nM.
